Results as given in patent US20240238422A1 (Osprey Biopharmaceuticals, Inc., priority 2021, published 2024).

Experiments:
[1] = system: Siglec-2 (CD22); conditions: SAM for Siglec-2 (CD22); value of the cited reference; cited from earlier work
[2] = target: T1, mouse CD22 (Mus musculus, UniProt P35329); test: SPR binding of synthetic Siglec ligands to mouse CD22 ectodomain (Biacore 8K+); conditions: for Kd: SPR, alkyne-terminating precursors of the PFP linkers, read-out: Mouse Siglec-2 Binding Affinity; for Mouse Siglec-2 Binding Affinity: grade in words for the conjugatable Siglec ligand-linker
T1 construct: synthetic Siglec ligands for recombinant human and mouse CD22 ectodomains
T1 sequence (P35329 22-708 limits assumed): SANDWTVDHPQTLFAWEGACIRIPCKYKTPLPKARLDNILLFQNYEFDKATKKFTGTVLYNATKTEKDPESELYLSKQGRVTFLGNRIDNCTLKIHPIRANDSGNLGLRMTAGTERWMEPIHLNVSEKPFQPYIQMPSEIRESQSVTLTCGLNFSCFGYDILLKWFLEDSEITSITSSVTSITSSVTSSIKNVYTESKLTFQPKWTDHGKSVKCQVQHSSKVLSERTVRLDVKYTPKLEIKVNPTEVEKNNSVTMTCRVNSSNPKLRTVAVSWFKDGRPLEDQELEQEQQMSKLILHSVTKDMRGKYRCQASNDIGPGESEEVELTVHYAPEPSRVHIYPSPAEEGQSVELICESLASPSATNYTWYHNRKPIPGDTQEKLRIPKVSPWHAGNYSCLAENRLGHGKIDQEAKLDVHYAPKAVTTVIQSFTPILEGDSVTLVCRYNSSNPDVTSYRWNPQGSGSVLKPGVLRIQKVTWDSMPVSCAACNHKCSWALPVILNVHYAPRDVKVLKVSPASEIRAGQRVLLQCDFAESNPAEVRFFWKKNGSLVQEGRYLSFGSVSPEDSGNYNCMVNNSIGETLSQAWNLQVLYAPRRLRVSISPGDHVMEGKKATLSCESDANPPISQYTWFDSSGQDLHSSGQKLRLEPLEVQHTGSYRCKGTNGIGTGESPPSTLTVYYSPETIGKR
Protocol: (§1) The following ligands were evaluated for mouse and human CD22 binding: 1) BPC-Neu5Gc PEG (Cpd. No. 26463), 2) BPC-Neu5Gc GAL (Cpd. No. 26339), 3) MPB-Neu5Ac PEG (Cpd. No. 26334), 4) MPB-Neu5Ac GAL (Cpd. No. 26409), 5) Neu5Gc PEG (Cpd. No. 26591). All tested compounds are alkyne-terminating precursors of PFP-terminating, conjugatable Siglec Linker structures used in conjugates in the following examples.
(§2) Binding assays for synthetic CD22 ligand binding to CD22 receptor ectodomain were run on a Biacore 8K+ instrument (Cytiva). Surface preparation for CD22 conjugates binding to human or mouse CD22 protein consisted of two steps, covalent immobilization of streptavidin followed by capture of Avi-tagged and biotinylated human CD22-Fc fusion (R&D Systems, Cat #AV11968-050) and a mono-Fc fusion of mouse CD22. Using standard amine coupling protocols, Streptavidin (Invitrogen, Cat #: 434301) was immobilized to a Cytiva CM5 chip (Cytiva, Cat #BR100530) by injecting at 100 ug/mL in Sodium Acetate, pH 4.5 (Cytiva, Cat #BR100350) on both flow cells, yielding a final response of 2500 RU. Capture of biotinylated mono Fc human CD22 was performed on channels 1-4 and mouse CD22 on channels 5-8 on the active flow cell (2) and the reference flow cell (1) was kept as unmodified streptavidin to account for any non-specific binding. Human CD22 or mouse CD22 (mono-Fc fusion, 5 μg/mL) was injected on the active flow cell (2) for 90 seconds at 5 μL/min, yielding about 210 RU of captured constructs.
(§3) Binding experiments of Siglec-ligand conjugated proteins were performed on the surfaces prepared above in HBS-EP+ (10 mM HEPES, 150 mM NaCl, 3 mM EDTA, 0.05% Tween-20, pH 7.5) as the running buffer. Conjugates were serially diluted 1:1 in running buffer from 1 μM to 31.25 nM and injected over both the reference and active flow cells for 90 seconds at 30 μL/min. The conjugates were then allowed to dissociate from the surface for 300 seconds. No regeneration was required as the conjugates completely dissociated from the surface after 30 seconds.

[3] = target: T2, human CD22 (Homo sapiens, UniProt P20273); test: SPR binding of synthetic Siglec ligands to human CD22 ectodomain (Biacore 8K+); conditions: for Kd: SPR, alkyne-terminating precursors of the PFP linkers, read-out: Human Siglec-2 Binding Affinity; for Human Siglec-2 Binding Affinity: grade in words for the conjugatable Siglec ligand-linker
T2 construct: Fc (human CD22-Fc fusion); purchased R&D Systems AV11968-050
T2 sequence (P20273 20-687 limits assumed): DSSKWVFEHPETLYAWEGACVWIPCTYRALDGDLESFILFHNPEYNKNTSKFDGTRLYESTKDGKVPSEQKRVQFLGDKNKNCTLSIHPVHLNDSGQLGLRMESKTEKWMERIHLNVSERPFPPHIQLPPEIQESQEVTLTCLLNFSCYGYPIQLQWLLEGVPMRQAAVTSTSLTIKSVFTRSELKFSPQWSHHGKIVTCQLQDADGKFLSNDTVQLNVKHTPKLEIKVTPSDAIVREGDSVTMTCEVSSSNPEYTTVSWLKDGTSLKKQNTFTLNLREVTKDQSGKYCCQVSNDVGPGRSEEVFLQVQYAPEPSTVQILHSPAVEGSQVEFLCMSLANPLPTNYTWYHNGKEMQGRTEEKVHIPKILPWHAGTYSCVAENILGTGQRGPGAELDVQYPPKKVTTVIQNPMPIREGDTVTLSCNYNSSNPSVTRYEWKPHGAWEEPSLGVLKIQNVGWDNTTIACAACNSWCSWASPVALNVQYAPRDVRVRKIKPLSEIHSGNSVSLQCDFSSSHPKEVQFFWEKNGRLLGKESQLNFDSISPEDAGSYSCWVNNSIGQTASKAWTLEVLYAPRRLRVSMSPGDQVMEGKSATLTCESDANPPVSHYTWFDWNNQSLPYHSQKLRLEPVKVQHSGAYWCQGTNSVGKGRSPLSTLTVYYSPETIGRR
Protocol: as §1, §2, §3

Row | SMILES | Kd [2] [µM] | Kd [3] [µM] | Mouse Siglec-2 Binding Affinity [2] | Human Siglec-2 Binding Affinity [3] | IC50 [1] [µM]
1 | CO[C@]1(C(=O)O)CC(O)[C@@H](NC(C)=O)C([C@H](O)[C@H](O)CNC(=O)c2ccc(-c3ccccc3)cc2)O1 (some centres unmarked) |  |  |  |  | 4
2 | O=C(Cc1ccc(-c2ccc(O)cc2)cc1)NC[C@@H](O)C(O)C1O[C@@](OCc2cccc(Cl)c2Cl)(C(=O)O)CC(O)[C@H]1NS(=O)(=O)c1ccccc1[N+](=O)[O-] (some centres unmarked) |  |  |  |  | 0.06
3 | CO[C@]1(C(=O)O)CC(NS(=O)(=O)c2ccc(C)cc2)[C@@H](NC(C)=O)C([C@H](O)[C@H](O)CNC(=O)c2ccc(-c3ccccc3)cc2)O1 (some centres unmarked) |  |  |  |  | 0.15
4 | C#CCOCCOCCO[C@]1(C(=O)O)C[C@H](O)[C@@H](NC(=O)CO)[C@H]([C@H](O)[C@H](O)CNC(=O)Cc2ccc(-c3ccccc3)cc2)O1 [Cpd. No. 26463, (2R,4S,5R,6R)-6-((1R,2R)-3-(2-([1,1′-biphenyl]-4-yl)acetamido)-1,2-dihydroxypropyl)-4-hydroxy-5-(2-hydroxyacetamido)-2-(2-(2-(prop-2-yn-1-yloxy)ethoxy)ethoxy)tetrahydro-2H-pyran-2-carboxylic acid] | 9.6 | 1.3 |  |  | 
5 | O=C(CCOCCOCCn1cc(COCCOCCO[C@]2(C(=O)O)C[C@H](O)[C@@H](NC(=O)CO)[C@H]([C@H](O)[C@H](O)CNC(=O)Cc3ccc(-c4ccccc4)cc3)O2)nn1)NCCCC[C@H](NC(=O)CCCNC(=O)CCOCCOCCn1cc(COCCOCCO[C@]2(C(=O)O)C[C@H](O)[C@@H](NC(=O)CO)[C@H]([C@H](O)[C@H](O)CNC(=O)Cc3ccc(-c4ccccc4)cc3)O2)nn1)C(=O)NCCOCCOCCOCCOCCC(=O)Oc1c(F)c(F)c(F)c(F)c1F [Cpd. No. 26475] |  |  | Strong | Strong | 
6 | O=C(CCOCCOCCn1cc(COCCOCCO[C@]2(C(=O)O)C[C@H](O)[C@@H](NC(=O)CO)[C@H]([C@H](O)[C@H](O)CNC(=O)Cc3ccc(-c4ccccc4)cc3)O2)nn1)NCCCC[C@H](NC(=O)CCCNC(=O)CCOCCOCCn1cc(COCCOCCO[C@]2(C(=O)O)C[C@H](O)[C@@H](NC(=O)CO)[C@H]([C@H](O)[C@H](O)CNC(=O)Cc3ccc(-c4ccccc4)cc3)O2)nn1)C(=O)N[C@@H](CCCCNC(=O)CCOCCOCCn1cc(COCCOCCO[C@]2(C(=O)O)C[C@H](O)[C@@H](NC(=O)CO)[C@H]([C@H](O)[C@H](O)CNC(=O)Cc3ccc(-c4ccccc4)cc3)O2)nn1)C(=O)NCCOCCOCCOCCOCCC(=O)Oc1c(F)c(F)c(F)c(F)c1F [Cpd. No. 26477] |  |  | Strong | Strong | 
7 | O=C(CCOCCOCCn1cc(COCCOCCOCCOCCO)nn1)NCCCC[C@@H](NC(=O)CCCNC(=O)CCOCCOCCn1cc(COCCOCCOCCOCCO)nn1)C(=O)N[C@H](CCCCNC(=O)CCOCCOCCn1cc(COCCOCCOCCOCCO)nn1)C(=O)NCCOCCOCCOCCOCCC(=O)Oc1c(F)c(F)c(F)c(F)c1F [Cpd. No. 26534, perfluorophenyl (16R,19R)-1-(4-(13-hydroxy-2,5,8,11-tetraoxatridecyl)-1H-1,2,3-triazol-1-yl)-16,19-bis(4-(3-(2-(2-(4-(13-hydroxy-2,5,8,11-tetraoxatridecyl)-1H-1,2,3-triazol-1-yl)ethoxy)ethoxy)propanamido)butyl)-9,14,17,20-tetraoxo-3,6,24,27,30,33-hexaoxa-10,15,18,21-tetraazahexatriacontan-36-oate] |  |  | No Binding | No Binding | 

Continued, in another order:

Row | Kd [2] [µM] | Kd [3] [µM] | Mouse Siglec-2 Binding Affinity [2] | Human Siglec-2 Binding Affinity [3] | SMILES | IC50 [1] [µM]
8 |  |  | No Binding | No Binding | O=C(CCOCCOCCOCCOCCn1cc(COCCOCCOCCOCCO)nn1)Oc1c(F)c(F)c(F)c(F)c1F [Cpd. No. 26530, perfluorophenyl 1-(4-(13-hydroxy-2,5,8,11-tetraoxatridecyl)-1H-1,2,3-triazol-1-yl)-3,6,9,12-tetraoxapentadecan-15-oate] | 
9 |  |  | No Binding | No Binding | O=C(CCOCCOCCn1cc(COCCOCCOCCOCCO)nn1)NCCCC[C@@H](NC(=O)CCCNC(=O)CCOCCOCCn1cc(COCCOCCOCCOCCO)nn1)C(=O)NCCOCCOCCOCCOCCC(=O)Oc1c(F)c(F)c(F)c(F)c1F [Cpd. No. 26532, perfluorophenyl (R)-1-(4-(13-hydroxy-2,5,8,11-tetraoxatridecyl)-1H-1,2,3-triazol-1-yl)-16-(4-(3-(2-(2-(4-(13-hydroxy-2,5,8,11-tetraoxatridecyl)-1H-1,2,3-triazol-1-yl)ethoxy)ethoxy)propanamido)butyl)-9,14,17-trioxo-3,6,21,24,27,30-hexaoxa-10,15,18-triazatritriacontan-33-oate] | 
10 | > 1000 | > 450 |  |  | C#CCOCCOCCO[C@]1(C(=O)O)C[C@H](O)[C@@H](NC(=O)CO)[C@H]([C@H](O)[C@H](O)CO)O1 [Cpd. No. 26591, (2R,4S,5R,6R)-4-hydroxy-5-(2-hydroxyacetamido)-2-(2-(2-(prop-2-yn-1-yloxy)ethoxy)ethoxy)-6-((1R,2R)-1,2,3-trihydroxypropyl)tetrahydro-2H-pyran-2-carboxylic acid] | 
11 |  |  | Weak | Weak | O=C(CO)N[C@H]1[C@H]([C@H](O)[C@H](O)CO)O[C@@](OCCOCCOCc2cn(CCOCCOCCOCCOCCC(=O)Oc3c(F)c(F)c(F)c(F)c3F)nn2)(C(=O)O)C[C@@H]1O [Cpd. No. 26614, (2R,4S,5R,6R)-4-hydroxy-5-(2-hydroxyacetamido)-2-(2-(2-((1-(15-oxo-15-(perfluorophenoxy)-3,6,9,12-tetraoxapentadecyl)-1H-1,2,3-triazol-4-yl)methoxy)ethoxy)ethoxy)-6-((1R,2R)-1,2,3-trihydroxypropyl)tetrahydro-2H-pyran-2-carboxylic acid] | 
12 |  |  | Weak | Weak | O=C(CCOCCOCCn1cc(COCCOCCO[C@]2(C(=O)O)C[C@H](O)[C@@H](NC(=O)CO)[C@H]([C@H](O)[C@H](O)CO)O2)nn1)NCCCC[C@H](NC(=O)CCCNC(=O)CCOCCOCCn1cc(COCCOCCO[C@]2(C(=O)O)C[C@H](O)[C@@H](NC(=O)CO)[C@H]([C@H](O)[C@H](O)CO)O2)nn1)C(=O)NCCOCCOCCOCCOCCC(=O)Oc1c(F)c(F)c(F)c(F)c1F [Cpd. No. 26615] | 
13 |  |  | Weak | Weak | O=C(CCOCCOCCn1cc(COCCOCCO[C@]2(C(=O)O)C[C@H](O)[C@@H](NC(=O)CO)[C@H]([C@H](O)[C@H](O)CO)O2)nn1)NCCCC[C@@H](CN[C@@H](CCCCNC(=O)CCOCCOCCn1cc(COCCOCCO[C@]2(C(=O)O)C[C@H](O)[C@@H](NC(=O)CO)[C@H]([C@H](O)[C@H](O)CO)O2)nn1)C(=O)NCCOCCOCCOCCOCCC(=O)Oc1c(F)c(F)c(F)c(F)c1F)NC(=O)CCCNCCCOCCOCCn1cc(COCCOCCO[C@]2(C(=O)O)C[C@H](O)[C@@H](NC(=O)CO)[C@H]([C@H](O)[C@H](O)CO)O2)nn1 [Cpd. No. 26616] | 
